Laboratory results taken from US20250154611A1, “SYSTEMS AND METHODS TO DETECT STEM CELL STRESS AND USES THEREOF” (Wayne State University, priority 2014, published 2025).

Target: T1, AKT (Mus musculus, UniProt P31750)
T1 construct: endogenous in cells; host or cells: mESC-D3 (ATCC)
Test: phospho-AKT western blot in mESCs under 200 mM sorbitol
Format: cell-based
Conditions: 200 mM; persisted through 1 hr
Method: FIG. 14. […] Blots are representative of triplicate experiments. Phospho-proteins and their loading controls are grouped between black lines.
FIG. 15. […] Blots are representative of triplicate experiments.
Hyperosmotic activation of signaling enzymes. […] Zhong, 2010; Xie, 2011. […] To determine the kinetics of activation of these five kinases in the described system, mESCs were treated with 200 mM sorbitol for 1 hr. Expression levels of the activated (i.e., phosphorylated) enzymes were assayed by western blot analysis (FIG. 14), including phospho-p38MAPK, phospho-JNK, phospho-MEK1/2, and phospho-AKT (the downstream effector of PI3K signaling).
Efficacy of enzyme inhibitors.

T1 sequence (P31750 whole entry): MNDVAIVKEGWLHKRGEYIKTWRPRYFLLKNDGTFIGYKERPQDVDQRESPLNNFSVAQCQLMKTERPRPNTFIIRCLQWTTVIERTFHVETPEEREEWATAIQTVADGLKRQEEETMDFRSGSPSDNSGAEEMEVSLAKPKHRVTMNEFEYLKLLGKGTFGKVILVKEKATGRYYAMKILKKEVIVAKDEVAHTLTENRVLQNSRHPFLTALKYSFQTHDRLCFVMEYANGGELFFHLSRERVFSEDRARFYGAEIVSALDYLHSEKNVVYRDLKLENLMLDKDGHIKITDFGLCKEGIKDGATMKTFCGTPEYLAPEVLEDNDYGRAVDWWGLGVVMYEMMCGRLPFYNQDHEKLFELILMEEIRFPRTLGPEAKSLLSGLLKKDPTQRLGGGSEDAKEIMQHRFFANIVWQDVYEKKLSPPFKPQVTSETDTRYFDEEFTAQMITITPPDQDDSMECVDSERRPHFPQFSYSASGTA

With `OC[C@@H](O)[C@@H](O)[C@H](O)[C@@H](O)CO` [sorbitol] the “time of increased AKT activation” value was 20 to 30 min.
